# Reference: ChEMBL document CHEMBL1146291, “Structure-activity delineation of quinones related to the biologically active Calothrixin B” (Bioorg Med Chem Lett, 2007)
# Key:
# P388 = assay: Cytotoxicity against mouse P388 cells by MTT assay; format: functional, cell-based
# HeLa = assay: Cytotoxicity against human HeLa cells by MTT assay; format: functional, cell-based
# [1] = Cytotoxicity against CV1 cells by MTT assay; format: cell-based; details: Chlorocebus aethiops, CV-1
SMILES,EC50 (P388) [µM],EC50 (HeLa) [nM],EC50 [1] [µM]
CC1=CC(=O)c2c([nH]c3ccccc23)C1=O,1,7000,1.7
O=C1C=CC(=O)c2c1[nH]c1ccccc21,> 50,> 50000,> 50
O=C1c2[nH]c3ccccc3c2C(=O)c2ccc3ccccc3c21,> 50,1500,> 50
O=C1c2ccccc2C(=O)c2c1[nH]c1ccccc21 [BENZOCARBAZOLEDIONE],> 50,1800,> 50
O=C1c2[nH]c3ccccc3c2C(=O)c2cnc3ccccc3c21 [CALOTHRIXIN B],9,250,2.4
CC1=CC(=O)c2[nH]c3ccccc3c2C1=O [MURRAYAQUINONE A],2.3,13000,10
